For assay [1], the system named is Arachidonate-Induced Bronchospasm (cyclooxygenase). The assay can be described thus: Pulmonary Mechanics Assay: arachidonate-induced bronchospasm without indomethacin (indicative of cyclooxygenase inhibition). The format is in vivo, male Hartley guinea pigs. Particulars: Cavia porcellus, guinea pig. The method, boiled down:
(§1)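 Urethane-anaesthetised (2 g/kg i.p.), succinylcholine-paralysed, ventilated male Hartley guinea pigs; compound given by various routes between i.v. arachidonic acid challenges (0.5-1.0 mg/kg; then 5-10 mg/kg after indomethacin 10 mg/kg i.v.). Cdyn and RL changes expressed as percent inhibition of control.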

For the next assay, the target named is T1, 5-lipoxygenase (Rattus norvegicus, UniProt P12527).
T1 construct: The cell-free homogenate was prepared by sonication of the cells followed by centrifugation at 40,000 xg; endogenous in cells; host or cells: RBL-1 (rat basophilic leukemia) cells, 40,000 xg supernatant of the sonicate
T1 sequence (P12527 1-673): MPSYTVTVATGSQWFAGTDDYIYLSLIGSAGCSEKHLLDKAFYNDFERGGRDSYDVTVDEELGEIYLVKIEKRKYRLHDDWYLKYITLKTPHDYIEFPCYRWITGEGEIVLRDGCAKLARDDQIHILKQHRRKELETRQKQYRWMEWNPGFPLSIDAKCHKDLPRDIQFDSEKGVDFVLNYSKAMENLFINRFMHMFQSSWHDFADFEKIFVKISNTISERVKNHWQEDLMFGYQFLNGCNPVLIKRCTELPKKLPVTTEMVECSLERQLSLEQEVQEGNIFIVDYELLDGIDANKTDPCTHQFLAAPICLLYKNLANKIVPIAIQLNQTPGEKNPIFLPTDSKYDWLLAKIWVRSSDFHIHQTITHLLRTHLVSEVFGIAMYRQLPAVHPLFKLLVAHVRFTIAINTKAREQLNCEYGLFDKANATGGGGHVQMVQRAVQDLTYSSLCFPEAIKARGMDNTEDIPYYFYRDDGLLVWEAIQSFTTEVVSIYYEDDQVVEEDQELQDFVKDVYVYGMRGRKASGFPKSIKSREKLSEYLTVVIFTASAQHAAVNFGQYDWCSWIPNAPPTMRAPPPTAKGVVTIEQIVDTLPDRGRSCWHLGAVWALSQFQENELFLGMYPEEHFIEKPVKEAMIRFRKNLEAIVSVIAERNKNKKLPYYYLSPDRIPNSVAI
The assay can be described thus: Inhibition of 5-lipoxygenase in cell-free homogenate of rat basophilic leukemia (RBL-1) cells. Type of assay: biochemical. Particulars: RBL-1 cell-free homogenate; for inhibition at 3 µM: read-out: Inhibition of 5-Lipoxygenase, % Inh. @ 3 μM. The method, boiled down: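 40,000 xg supernatant of sonicated RBL-1 cell homogenate incubated with ^14C-arachidonic acid and CaCl2, with drug or vehicle. Products extracted after acidification, separated by TLC and quantified by scintillation counting; IC50 or percent inhibition at 3 μM reported.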

The subject of assay [2] is Arachidonate-Induced Bronchospasm (lipoxygenase). The assay can be described thus: Pulmonary Mechanics Assay: arachidonate-induced bronchospasm with indomethacin (SRS-A response, indicative of lipoxygenase inhibition). Type of assay: in vivo, male Hartley guinea pigs. Particulars: Cavia porcellus, guinea pig. The method, boiled down: as §1
The subject of assay [3] is Arachidonate-Induced Ear Edema. The assay can be described thus: Arachidonic Acid-Induced Ear Edema Assay. Type of assay: in vivo. Particulars: topical, mouse ear; for inhibition in vivo at 0.4 mg: 400 μg topically; for inhibition in vivo at 0.2 mg: 200 μg topically. The method, then: The topical anti-inflammatory activity of a compound was determined by its ability to inhibit an experimentally-induced inflammation in the mouse ear. Basically, four milligrams of arachidonic acid in acetone were applied to the dorsal surface of one ear with a microliter pipette. The mice were sacrificed at various times after application of arachidonic acid (one-half to six hours). A section of each ear was removed with a 7 mm round punch and weighed on an electronic or analytical balance. The difference in weight between treated and untreated ears was determined. Compounds to be evaluated for anti-inflammatory activity can be incorporated directly into the irritant mixture or at various times prior to or after application of arachidonic acid.
The degree of anti-inflammatory activity is shown in Table I, and is expressed in terms of the percent inhibition of ear weight increase.

The mark [4] stands for this setting: ID dosing, read-out: Inhibition of Arachidonate-Induced Bronchospasm (ID Dosing), % Inh. without Indomethacin.
[5] abbreviates: ID dosing, read-out: Inhibition of Arachidonate-Induced Bronchospasm (ID Dosing), % Inh. with Indomethacin.
The mark [6] stands for this setting: read-out: Inhibition of Arachidonate-Induced Ear Edema, % Inh. (μg topically).
Where [7] appears, read: IV dosing, read-out: Inhibition of Arachidonate-Induced Bronchospasm (IV Dosing), % Inh. without Indomethacin.
Setting [8] is: IV dosing, read-out: Inhibition of Arachidonate-Induced Bronchospasm (IV Dosing), % Inh. with Indomethacin.

For `CCCCCCCCCCNC(=O)N(O)CCCC(=O)OCC` [Example 19, N-Decyl-N'-[3-(ethoxycarbonyl)propyl]-N'-hydroxyurea], the figures for the inhibition in vivo at 50 mg/kg in assay [1] (setting [4]) and in assay [2] (setting [5]) were -89% and 0%, respectively. Besides, the inhibition at 3 µM at 5-lipoxygenase was found to be 94%. Also, the “Inhibition of Arachidonate-Induced Ear Edema, ED50” value (shortened to “Inhibition … ED50”) in assay [3] is 183 µg. The inhibition in vivo at 0.4 mg in assay [3] (setting [6]) came to 60%.
`CCCCCCCCCCN(C)C(=O)N(C)O` [Example 17, N-Decyl-N,N'-dimethyl-N'-hydroxyurea]: the figures for the inhibition in vivo at 15 mg/kg in assay [1] (setting [7]) and in assay [2] (setting [8]) were 41% and 79%, respectively. The compound further came in with an IC50 on 5-lipoxygenase of 160 nM. The “Inhibition … ED50” value in assay [3] stood at 24 µg. Besides, the inhibition in vivo at 0.4 mg in assay [3] (setting [6]) came out at 88%.
On to `CCCCCCCCCCN(O)C(=O)NCCC(=O)OC` [Example 4, N-[2-(Methoxycarbonyl)ethyl]-N'-decyl-N'-hydroxyurea], for which the inhibition in vivo at 15 mg/kg in assay [1] (setting [7]) is -39%; in assay [2] (setting [8]), under 20%. The inhibition at 3 µM on 5-lipoxygenase turned out to be 100%. For the same compound, the inhibition in vivo at 0.4 mg in assay [3] (setting [6]) is 65%.
As to `CCCCCCCCCCCN(O)C(=O)N(C)C` [Example 12, N,N-Dimethyl-N'-undecyl-N'-hydroxyurea], the inhibition in vivo at 50 mg/kg in assay [1] (setting [4]) was -9%; in assay [2] (setting [5]) it was 40%. For the same compound, the inhibition at 3 µM on 5-lipoxygenase turned out to be 100%. The “Inhibition … ED50” value in assay [3] amounted to 65 µg. Moreover, in assay [3] (setting [6]), the inhibition in vivo at 0.2 mg worked out at 94%.
For `COc1cc2c(cc1OC)CN(C(=O)N(C)O)CC2` [Example 51, 6,7-Dimethoxy-N-hydroxy-N-methyl-1,2,3,4-tetrahydroisoquinoline-2-carboxamide], the results for the inhibition in vivo at 15 mg/kg in assay [1] (setting [7]) and in assay [2] (setting [8]) were under 20% and 60%, respectively. For the same compound, at 5-lipoxygenase, the inhibition at 3 µM came to 24%. Besides, the inhibition in vivo at 0.1 mg in assay [3] (100 μg topically, read-out: Inhibition of Arachidonate-Induced Ear Edema, % Inh. (μg topically)) worked out at 28%.
As for `CCCCCCCCCCN(O)C(=O)N(CC)CC` [Example 1, N,N-Diethyl-N'-decyl-hydroxyurea], the inhibition in vivo at 15 mg/kg in assay [1] (setting [7]) was 54%; in assay [2] (setting [8]), 38%. For the same compound, the inhibition at 3 µM on 5-lipoxygenase is 100%. In assay [3] (setting [6]), the inhibition in vivo at 0.4 mg worked out at 52%.
For the compound `CCCCCCCCN(O)C(=O)N(C)C` [Example 7, N,N-Dimethyl-N'-octyl-N'-hydroxyurea], the inhibition in vivo at 15 mg/kg in assay [1] (setting [7]) is 61%; in assay [2] (setting [8]) it was 41%. Further, the inhibition at 3 µM at 5-lipoxygenase was determined as 77%. The compound further had an IC50 on 5-lipoxygenase of 1800 nM. Moreover, the “Inhibition … ED50” value in assay [3] amounted to 49 µg.
With `CCCCCCCCCCCCCCN(O)C(=O)N(C)C` [Example 15, N,N-Dimethyl-N'-tetradecyl-N'-hydroxyurea], the inhibition in vivo at 50 mg/kg in assay [1] (setting [4]) was -26%; in assay [2] (setting [5]) it was 46%. For the same compound, the inhibition at 3 µM at 5-lipoxygenase was 100%. Moreover, the inhibition in vivo at 0.2 mg in assay [3] (setting [6]) worked out at 26%.
For the compound `CCCCCCCCCCCCCN(O)C(=O)N(C)C` [Example 14, N,N-Dimethyl-N'-tridecyl-N'-hydroxyurea], the inhibition in vivo at 50 mg/kg was -128% in assay [1] (setting [4]) and 49% in assay [2] (setting [5]). In addition, the inhibition at 3 µM at 5-lipoxygenase amounted to 95%. In addition, in assay [3], the “Inhibition … ED50” value stood at 156 µg. Further, in assay [3] (setting [6]), the inhibition in vivo at 0.2 mg worked out at 95%.
For the compound `CCCCCCCCCCN(O)C(=O)NC` [Example 2, N-Methyl-N'-decyl-N'-hydroxyurea], the inhibition in vivo at 15 mg/kg amounted to 32% in assay [1] (setting [7]) and 44% in assay [2] (setting [8]). For the same compound, inhibition at 5-lipoxygenase was half-maximal at 90 nM (IC50). The “Inhibition … ED50” value in assay [3] is 29 µg. For the same compound, in assay [3] (setting [6]), the inhibition in vivo at 0.4 mg amounted to 82%.
Regarding `CCCCCCCCCCN1CCN(O)C1=O` [Example 25, 1-Decyl-3-hydroxyimidazolidin-2-one], the inhibition in vivo at 20 mg/kg in assay [1] (IV dosing, 20 mg/kg, read-out: Inhibition of Arachidonate-Induced Bronchospasm (IV Dosing), % Inh. without Indomethacin) came to 85%; in assay [2] (IV dosing, 20 mg/kg, read-out: Inhibition of Arachidonate-Induced Bronchospasm (IV Dosing), % Inh. with Indomethacin) it was 62%. Also, at 5-lipoxygenase, it took 740 nM to reach half-maximal inhibition (IC50). In assay [3], the “Inhibition … ED50” value worked out at 90 µg. In addition, the inhibition in vivo at 0.4 mg in assay [3] (setting [6]) stood at 81%.
With `CCCCCCCCCCN(O)C(=O)NCCCCCCC(=O)OC` [Example 6, N-[6-(Methoxycarbonyl)hexyl]-N'-decyl-N'-hydroxyurea], the inhibition in vivo at 15 mg/kg is -45% in assay [1] (setting [7]) and under 20% in assay [2] (setting [8]). In addition, the inhibition at 3 µM at 5-lipoxygenase amounted to 100%. Besides, the inhibition in vivo at 0.4 mg in assay [3] (setting [6]) came out at 30%.
As to `CCCCCCCCCCNC(=O)N(C)O` [Example 16, N-Decyl-N'-methyl-N'-hydroxyurea], the inhibition in vivo at 100 mg/kg in assay [1] (ID dosing, 100 mg/kg, read-out: Inhibition of Arachidonate-Induced Bronchospasm (ID Dosing), % Inh. without Indomethacin) is under 20%; in assay [2] (ID dosing, 100 mg/kg, read-out: Inhibition of Arachidonate-Induced Bronchospasm (ID Dosing), % Inh. with Indomethacin), 35%. The inhibition in vivo at 15 mg/kg stood at 55% in assay [1] (setting [7]) and 58% in assay [2] (setting [8]). On 5-lipoxygenase, the half-inhibitory concentration (IC50) worked out at 210 nM. For the same compound, in assay [3], the “Inhibition … ED50” value came out at 28 µg. For the same compound, in assay [3] (setting [6]), the inhibition in vivo at 0.4 mg is 73%.

The term inhibition denotes the percentage by which the read-out fell short of the control. The term IC50 denotes the midpoint of a concentration-inhibition curve. Lower therefore signals greater potency.

The values are drawn from patent publication US5066658A, “Substituted hydroxyureas” (Ortho Pharmaceutical Corporation, priority 1990, dated 1991).
